Assay results from article PMC10384862, “[^212Pb]Pb-eSOMA-01: A Promising Radioligand for Targeted Alpha Therapy of Neuroendocrine Tumors” (Pharmaceuticals, 2023).
Like-named read-outs stand apart in the source and are kept apart here.

What was measured:
[1] = LogD7.4 by shake-flask method (n-octanol/PBS); assay type: physicochemical; settings: ^203Pb-labeled compound; n-octanol/PBS pH 7.4; n = 3
Protocol: Distribution coefficients (LogD7.4) were determined by the shake-flask method. A sample containing the ^203Pb-labeled compound (~1 MBq) was added to a vial containing PBS (600 µL, pH 7.4) and n-octanol (600 µL). The vial was vortexed vigorously and then centrifuged at 10,000 rpm for 10 min for phase separation. Samples (100 µL) of the n-octanol and aqueous phases were taken and measured by a gamma counter. The LogD7.4 value was calculated by using the equation: LogD7.4 = log [(counts in the n-octanol phase)/(counts in the aqueous phase)]. Measurements were performed in triplicate.

[2] = In vitro stability in PBS; assay type: physicochemical; settings: 37 °C, n = 1
Protocol: The ^203Pb-labeled compounds (~ 2 MBq) or the ^212Pb-labeled compounds (~ 70 kBq) were incubated in 300 µL of phosphate buffered saline (PBS; 0.1 M, pH 7.4) or mouse serum at 37 °C. The stability of the radiolabeled peptides was monitored at 1, 4, and 24 h post-incubation. The samples in PBS were directly analyzed by radio-HPLC without any pretreatment. However, samples of mouse serum were mixed with an equal volume of acetonitrile to precipitate the proteins. The solution was centrifuged twice for 5 min at 13,000 rpm, and the supernatant was analyzed by radio-HPLC using Method 1 for lead-203 and Method 2 for lead-212.

[3] = tested on: H69-xenograft Balb/c nu/nu mice; experiment: Biodistribution study with lead-212; assay type: in vivo, mouse; settings: 1 h p.i.; n = 4
Protocol: (§1) Six-week-old male Balb/c nu/nu-specific and opportunistic pathogen-tree (SOPF) mice (Janvier Labs, Le Genest-Saint-Isle, France) were housed in individually ventilated cages, with four mice per cage. Upon arrival, the mice were acclimated for 1 week with access to food and water ad libitum. Mice were subcutaneously inoculated on the right shoulder with NCI-H69 cells (5 × 10^6 cells suspended in 100 μL of 1/3 Matrigel (Corning Inc.; Corning, NY, USA) and 2/3 Hank’s balanced salt solution (Gibco; Paisley, UK). NCI-H69 xenografts were allowed to grow for 3 weeks. Tumor sizes were 391 ± 173 mm^3 at the start of the studies.
(§2) Biodistribution studies were performed to determine tumor and organ uptake of [^212Pb]Pb-DOTAM-TATE, [^212Pb]Pb-eSOMA-01, and [^212Pb]Pb-eSOMA-02. Animals (n = 4 for each time point) were injected intravenously (i.v.) with an average of 100 kBq/0.5 nmol. At 3 selected time points (1, 4, and 24 h) p.i., blood was collected via retro-orbital puncture under isoflurane/O2 anesthesia, after which the mice were sacrificed via cervical dislocation. The tumor and organs of interest (heart, lungs, liver, spleen, stomach, large intestine, small intestine, pancreas, kidneys, muscle, skin, and bone) were excised, washed in PBS, and blotted dry. To confirm receptor specificity of radioligand uptake, mice (n = 3) were co-injected with an excess (25 nmol) of the respective unlabeled peptide, and uptake in the organs of interest was determined at 24 h p.i. To determine the total injected radioactivity per animal, a calibration curve with lead-212 was established using the gamma counter. The percentage of injected dose per gram (% ID/g) was determined for each tissue sample and corrected for both the injected volume and the % ID present at the injection site (the tail).

[4] = Biodistribution study with lead-212; assay type: in vivo, mouse; settings: mouse, intravenous; for tissue uptake at 1 h: 1 h p.i.; for tissue uptake at 4 h: 4 h p.i.
Protocol: as §1, §2

[5] = blood, 100 kBq, n = 4, read-out: Blood uptake
[6] = intestines, 100 kBq, n = 4, read-out: Intestines uptake
[7] = kidneys, 100 kBq, n = 4, read-out: Kidneys uptake
[8] = liver, 100 kBq, n = 4, read-out: Liver uptake
[9] = lungs, 100 kBq, n = 4, read-out: Lungs uptake
[10] = pancreas, 100 kBq, n = 4, read-out: Pancreas uptake
[11] = spleen, 100 kBq, n = 4, read-out: Spleen uptake
[12] = stomach, 100 kBq, n = 4, read-out: Stomach uptake
[13] = tumor, 100 kBq, n = 4, read-out: Tumor uptake

## C[C@@H](O)[C@H](NC(=O)[C@@H]1CSSC[C@H](NC(=O)[C@@H](Cc2ccccc2)NC(=S)Nc2ccc(CC3CN(CC(N)=O)CCN(CC(N)=O)CCN(CC(N)=O)CCN3CC(N)=O)cc2)C(=O)N[C@@H](Cc2ccc(O)cc2)C(=O)N[C@H](Cc2c[nH]c3ccccc23)C(=O)N[C@@H](CCCCN)C(=O)N[C@@H]([C@@H](C)O)C(=O)N1)C(=O)O (stereo partly drawn) [[^203Pb]Pb-eSOMA-03, metal not drawn]
[1]
  logD: -1.36 ± 0.06
[2]; ^203Pb-labeled, 1 h
  Stability in PBS, intact labeled ligand: 70%
[2]; ^203Pb-labeled, 4 h
  Stability in PBS, intact labeled ligand: 40%
[2]; ^203Pb-labeled, 24 h
  Stability in PBS, intact labeled ligand: 15%
[2]; phosphate buffered saline, pH 7.4, ^203Pb-labeled, 1 h, read-out: Stability in PBS, intact labeled ligand
  remaining at 1 h: 70%
[2]; phosphate buffered saline, pH 7.4, ^203Pb-labeled, 24 h, read-out: Stability in PBS, intact labeled ligand
  remaining at 24 h: 15%

## C[C@@H](O)[C@H](NC(=O)[C@@H]1CSSC[C@H](NC(=O)[C@@H](Cc2ccccc2)NC(=O)CN2CCC(NC(=O)CN3CCN(CC(N)=O)CCN(CC(N)=O)CCN(CC(N)=O)CC3)CC2)C(=O)N[C@@H](Cc2ccc(O)cc2)C(=O)N[C@H](Cc2c[nH]c3ccccc23)C(=O)N[C@@H](CCCCN)C(=O)N[C@@H]([C@@H](C)O)C(=O)N1)C(=O)O [[^212Pb]Pb-eSOMA-02, metal not drawn]
[3]
  Stomach uptake: 3.7 % ID/g
[4]; [5]
  tissue uptake at 1 h: 1.44 ± 0.24 %ID/g
  tissue uptake at 4 h: 0.01 ± 0.02 %ID/g
[4]; bone, 100 kBq, n = 4, read-out: Bones uptake
  tissue uptake at 4 h: 0.03 ± 0.05 %ID/g
[4]; heart, 100 kBq, n = 4, read-out: Heart uptake
  tissue uptake at 1 h: 0.54 ± 0.21 %ID/g
[4]; [6]
  tissue uptake at 1 h: 2.24 ± 1.05 %ID/g
  tissue uptake at 4 h: 0.67 ± 0.21 %ID/g
[4]; intestines, 100 kBq, 24 h p.i., n = 4, read-out: Intestines uptake
  tissue uptake at 24 h: 0.13 ± 0.09 %ID/g
[4]; intestines, 24 h block: co-injection of excess (25 nmol) unlabeled peptide, read-out: Intestines uptake
  tissue uptake at 24 h: 0.03 ± 0.03 %ID/g
[4]; [7]
  tissue uptake at 1 h: 81.1 ± 14.3 %ID/g
  tissue uptake at 4 h: 50.5 ± 3.24 %ID/g
[4]; kidneys, 100 kBq, 24 h p.i., n = 4, read-out: Kidneys uptake
  tissue uptake at 24 h: 28.2 ± 9.41 %ID/g
[4]; kidneys, 24 h block: co-injection of excess (25 nmol) unlabeled peptide, read-out: Kidneys uptake
  tissue uptake at 24 h: 37.9 ± 9.17 %ID/g
[4]; [8]
  tissue uptake at 1 h: 3.96 ± 0.37 %ID/g
  tissue uptake at 4 h: 3.09 ± 0.7 %ID/g
[4]; liver, 100 kBq, 24 h p.i., n = 4, read-out: Liver uptake
  tissue uptake at 24 h: 1.44 ± 0.94 %ID/g
[4]; liver, 24 h block: co-injection of excess (25 nmol) unlabeled peptide, read-out: Liver uptake
  tissue uptake at 24 h: 0.83 ± 0.87 %ID/g
[4]; [9]
  tissue uptake at 1 h: 3.49 ± 0.7 %ID/g
  tissue uptake at 4 h: 0.99 ± 0.24 %ID/g
[4]; lungs, 100 kBq, 24 h p.i., n = 4, read-out: Lungs uptake
  tissue uptake at 24 h: 0.2 ± 0.21 %ID/g
[4]; [10]
  tissue uptake at 1 h: 6.41 ± 0.7 %ID/g
  tissue uptake at 4 h: 1.25 ± 0.27 %ID/g
[4]; pancreas, 100 kBq, 24 h p.i., n = 4, read-out: Pancreas uptake
  tissue uptake at 24 h: 0.41 ± 0.37 %ID/g
[4]; skin, 100 kBq, n = 4, read-out: Skin uptake
  tissue uptake at 4 h: 0.25 ± 0.33 %ID/g
[4]; [11]
  tissue uptake at 1 h: 0.59 ± 0.06 %ID/g
  tissue uptake at 4 h: 0.39 ± 0.27 %ID/g
[4]; [12]
  tissue uptake at 1 h: 3.74 ± 0.66 %ID/g
  tissue uptake at 4 h: 1.17 ± 0.35 %ID/g
[4]; stomach, 100 kBq, 24 h p.i., n = 4, read-out: Stomach uptake
  tissue uptake at 24 h: 0.36 ± 0.27 %ID/g
[4]; stomach, 24 h block: co-injection of excess (25 nmol) unlabeled peptide, read-out: Stomach uptake
  tissue uptake at 24 h: 0.14 ± 0.28 %ID/g
[4]; [13]
  tissue uptake at 1 h: 7.93 ± 2.14 %ID/g
  tissue uptake at 4 h: 7.45 ± 0.29 %ID/g
[4]; tumor, 100 kBq, 24 h p.i., n = 4, read-out: Tumor uptake
  tissue uptake at 24 h: 1.02 ± 0.09 %ID/g
[2]; ^212Pb-labeled, 1 h
  Stability in PBS, intact labeled ligand: 97%
[2]; ^212Pb-labeled, 4 h
  Stability in PBS, intact labeled ligand: 95%
[2]; ^212Pb-labeled, 24 h
  Stability in PBS, intact labeled ligand: 95%
